“Also recorded” adds a separate entry of the source.
Tests used:
[1] = Villa et al., Org Lett 2012; cited from earlier work
[2] = test system: normal cord blood CD34+ cells engrafted in Rag2−/−γc−/− mice; assay: Normal HSPC in vivo model (cord blood CD34+ cell engrafted mice); parameters: species or system mouse; details: 10 mg/kg versus vehicle
Experimental: All animal studies were performed in accordance with UCSD and NIH-equivalent ethical guidelines and were approved by the Institutional Animal Care and Use Committee (IACUC protocol # S06015). For all in vivo experiments, animals of both genders were utilized. […] At 7-28 weeks post-transplant (7-36 weeks old), mice were euthanized, and peripheral blood and single cell suspensions of hematopoietic organs were analyzed for human cell engraftment by FACS. […] Treatment was initiated at 8 weeks post-transplant, and at 10 weeks post-transplant, mice were euthanized, and peripheral blood and single cell suspensions of hematopoietic organs were analyzed for human cell engraftment by FACS. […]
Flow cytometric analysis was performed on single cell suspensions from each hematopoietic tissue essentially as for primary patient samples, and frequencies of total live human CD45+ cells, CD45+ CD34+ CD38− Lin− (stem) cells, CD45+ CD34+ CD38+ Lin− (progenitor) cells, and CD45+/CD33+ (leukemic blasts) were determined in each tissue. […]

[3] = test system: pFlare splicing reporter (MAPT exon 10) in HEK293 cells; assay: Dual fluorescence (RFP/GFP) alternative splicing reporter (pFlare) assay; assay type: cell-based
Experimental: For evaluation of in vitro splicing activity using a two-color fluorescent splicing reporter system, HEK293T cells (mycoplasma-free authenticated cell lines obtained from ATCC) were grown in complete media (DMEM+10% FBS) and transfected with a series of fluorescent protein-expressing plasmids. Vector controls include pFlare5A, which expresses solely GFP, and pFlare5G, which expresses maximal RFP. The pFlare reporter contains microtubule-associated protein tau (MAPT) exon 10 as an indicator of alternative splicing. Under physiological conditions, the pFlare conditional reporter vector allows in-frame expression of GFP but not RFP. In the presence of splicing inhibitors, exon skipping favors production of RFP over GFP. […] Fluorescence was evaluated on a Leica fluorescent microscope (Sanford Consortium Stem Cell Core facility) and then analyzed by flow cytometry on a Miltenyi MACSQUANT® to assess transfection efficiency (ranging from over 70% at 24 hrs after transfection to approximately 20% at 48 hrs after transfection) and mean fluorescence intensity (MFI) of RFP and GFP in positive cells. In HEK293 cells transiently transfected with control GFP or RFP vectors, or the pFlare splicing reporter vector, the dynamic range of the assay as measured by MFI of GFP and RFP 48 hours after transfection ranged from 0.41-1.69 for RFP/GFP ratios (FIG. 6A). […]

## CC[C@H](OC)[C@@H](C)[C@H]1O[C@@H]1[C@@H](O)[C@H](C)/C=C/C=C(\C)[C@H]1OC(=O)C[C@H](O)CC[C@@](C)(O)[C@@H](OC(C)=O)/C=C/[C@@H]1C (stereo in doubt) [Formula 17S-FD-895, 17S-FD-895]
[1]
  activity over FD-895: 25 fold
[2]
  total human hematopoietic cell or HSPC survival: no effect
[3]; HEK293 cells, 0.01-10 μM, 24 hrs, flow cytometry MFI
  RFP/GFP ratios: dose-dependent increase
[3]; reporter-transfected HEK293 cells, 1-10 μM, live-cell / time-lapse
  RFP fluorescence by confocal microscopy: increase in RFP fluorescence; also recorded: increased RFP/GFP expression; also recorded: increased RFP fluorescence
